What was measured:
[1] = system: androgen-responsive tissues (prostate, seminal vesicles and levator ani muscle) of castrated rats; assay: Androgenic and anabolic activity in castrated rat model, 14 days of administration; conditions: for prostate, seminal vesicle and levator ani muscle weights: 14 days (FIG. 3); for prostate and seminal vesicle weights / Levator Ani organ weight / Prostate organ weight / Seminal Vesicles organ weight: 14 days; for prostate and seminal vesicle weights: % of that observed in intact animals (FIG. 1); for Levator Ani organ weight / Prostate organ weight / Seminal Vesicles organ weight: mean ± S.D.
[2] = Pharmacokinetic studies (in vivo clearance); conditions: comparison among N-1 to N-4
[3] = compared with testosterone propionate (FIG. 3)

SMILES: C[C@](O)(COc1ccc(Cl)cc1)C(=O)Nc1ccc(C#N)c(C(F)(F)F)c1 [Compound 6]
- prostate, seminal vesicle and levator ani muscle weights ([1]; 0.1-1.0 mg/day): dose-dependent increases
- potency and intrinsic activity in increasing the weight of levator ani muscle [1, 3]: greater potency and intrinsic activity
- potency and intrinsic activity in increasing the weights of prostate and seminal vesicle [1, 3]: lower potency and intrinsic activity
- levator ani muscle weight ([1]; dose as low as 0.3 mg/day, versus intact animals (FIG. 3)): same level as that of intact animals

SMILES: C[C@](O)(COc1ccc([N+](=O)[O-])cc1)C(=O)Nc1ccc([N+](=O)[O-])c(C(F)(F)F)c1 [Compound N-1]
- weight of the levator ani muscle ([1]; 1 mg/day for 14 days): 105%±13%

SMILES: C[C@](O)(COc1ccc(C#N)cc1)C(=O)Nc1ccc(C#N)c(C(F)(F)F)c1 [Compound N-4]
- in vivo clearance [2]: lowest in vivo clearance
- weight of the levator ani muscle ([1]; 1 mg/day for 14 days): 142%±17%
- in vivo pharmacologic activity ([1]; 1 mg/day for 14 days, comparison among N-1 to N-4): greatest activity

SMILES: C[C@](O)(COc1ccc(I)cc1)C(=O)Nc1ccc([N+](=O)[O-])c(C(F)(F)F)c1 [Compound 4]
- prostate and seminal vesicle weights ([1]; 0.1-1.0 mg/day): less than 20%

SMILES: C[C@](O)(COc1ccc(F)cc1)C(=O)Nc1ccc([N+](=O)[O-])c(C(F)(F)F)c1 [Compound 1]
- prostate and seminal vesicle weights ([1]; 0.1-1.0 mg/day): less than 20%

SMILES: CCC(=O)O[C@H]1CC[C@H]2[C@@H]3CCC4=CC(=O)CC[C@]4(C)[C@H]3CC[C@]12C [testosterone propionate, reference compound]
- prostate, seminal vesicle and levator ani muscle weights ([1]; 0.1-1.0 mg/day): dose-dependent manner

SMILES: C[C@](O)(COc1ccc([N+](=O)[O-])cc1)C(=O)Nc1ccc(C#N)c(C(F)(F)F)c1 [Compound N-3]
- weight of the levator ani muscle ([1]; 1 mg/day for 14 days): 130%±5%

SMILES: C[C@](O)(COc1ccc(Cl)cc1)C(=O)Nc1ccc([N+](=O)[O-])c(C(F)(F)F)c1 [Compound 2]
- levator ani muscle weight ([1]; 0.1-1.0 mg/day, 14 days (FIG. 1), versus intact animals): same level as that of intact animals
- prostate and seminal vesicle weights ([1]; 0.1-1.0 mg/day): less than 40%

SMILES: C[C@](O)(COc1ccc(Br)cc1)C(=O)Nc1ccc([N+](=O)[O-])c(C(F)(F)F)c1 [Compound 3]
- prostate and seminal vesicle weights ([1]; 0.1-1.0 mg/day): less than 20%

SMILES: C[C@](O)(COc1ccc(C#N)cc1)C(=O)Nc1ccc([N+](=O)[O-])c(C(F)(F)F)c1 [Compound N-2]
- weight of the levator ani muscle ([1]; 1 mg/day for 14 days): 119%±16%

SMILES: C[C@](O)(COc1ccc(F)cc1)C(=O)Nc1ccc(C#N)c(C(F)(F)F)c1 [Compound 5]
- Levator Ani organ weight ([1]; 0.10 mg/day): 54.9 ± 5.77 % of intact
- Prostate organ weight ([1]; 0.10 mg/day): 6.4 ± 0.82 % of intact
- Seminal Vesicles organ weight ([1]; 0.10 mg/day): 8.8 ± 1.18 % of intact
- Levator Ani organ weight ([1]; 0.50 mg/day): 55.0 ± 9.23 % of intact
- Prostate organ weight ([1]; 0.50 mg/day): 6.2 ± 0.56 % of intact
- Seminal Vesicles organ weight ([1]; 0.50 mg/day): 9.3 ± 1.57 % of intact
- Levator Ani organ weight ([1]; 0.75 mg/day): 68.9 ± 8.46 % of intact
- Prostate organ weight ([1]; 0.75 mg/day): 7.6 ± 0.74 % of intact
- Seminal Vesicles organ weight ([1]; 0.75 mg/day): 9.8 ± 3.65 % of intact
- Levator Ani organ weight ([1]; 1.00 mg/day): 75.2±9.51 % of intact
- Prostate organ weight ([1]; 1.00 mg/day): 8.7±1.39 % of intact
- Seminal Vesicles organ weight ([1]; 1.00 mg/day): 10.7±0.91 % of intact

— patent US20050038110A1, “Selective androgen receptor modulators and methods of use thereof” (priority 2000, published 2005)
